In experiment [1] the target is T1, TRPV4 (transient receptor potential vanilloid 4) (Mus musculus, UniProt Q9EPK8). Put plainly: Inhibition of GSK1016790A-induced calcium influx. It counts as cell-based.
Experiment [2] deals with T1, TRPV4 (transient receptor potential vanilloid 4). Put plainly: Calcium influx. It counts as cell-based.

In publication PMC4684994 (Journal of immunology (Baltimore, Md. : 1950), 2015) one finds IC50 and EC50 data, which are given here for two compounds.

T1 sequence (Q9EPK8 whole entry): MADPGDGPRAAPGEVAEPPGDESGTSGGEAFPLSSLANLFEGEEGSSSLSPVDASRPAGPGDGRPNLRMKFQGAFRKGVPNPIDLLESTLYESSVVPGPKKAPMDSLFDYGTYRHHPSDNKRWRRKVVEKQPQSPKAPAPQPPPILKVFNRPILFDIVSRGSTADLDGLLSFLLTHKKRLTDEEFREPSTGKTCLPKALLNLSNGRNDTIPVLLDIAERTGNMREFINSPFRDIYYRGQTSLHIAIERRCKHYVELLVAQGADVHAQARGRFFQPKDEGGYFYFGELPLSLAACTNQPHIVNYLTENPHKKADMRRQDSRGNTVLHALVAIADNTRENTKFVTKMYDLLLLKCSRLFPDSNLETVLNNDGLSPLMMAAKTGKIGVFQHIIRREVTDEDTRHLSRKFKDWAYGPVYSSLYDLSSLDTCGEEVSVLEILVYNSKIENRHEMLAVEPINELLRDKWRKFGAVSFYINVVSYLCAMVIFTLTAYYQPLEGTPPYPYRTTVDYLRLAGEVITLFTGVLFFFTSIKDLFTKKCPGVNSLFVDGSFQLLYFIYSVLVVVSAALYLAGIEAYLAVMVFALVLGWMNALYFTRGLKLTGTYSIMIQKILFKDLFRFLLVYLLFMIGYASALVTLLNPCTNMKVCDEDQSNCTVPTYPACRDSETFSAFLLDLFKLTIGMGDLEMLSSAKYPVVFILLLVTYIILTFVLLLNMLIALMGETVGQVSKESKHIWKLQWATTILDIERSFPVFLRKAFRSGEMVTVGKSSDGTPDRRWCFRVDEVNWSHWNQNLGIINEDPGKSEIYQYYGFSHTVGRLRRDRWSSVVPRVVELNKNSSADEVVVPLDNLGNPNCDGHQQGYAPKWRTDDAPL

On to `Cc1c(C(=O)Nc2cccc(C(F)(F)F)c2)cc(-c2ccccc2)n1CCCN1CCOCC1` [HC, HC067047], for which the IC50 in experiment [1] came out at 7 µM.

For the compound `CC(C)C[C@H](NC(=O)c1cc2ccccc2s1)C(=O)N1CCN(C(=O)[C@H](CO)NS(=O)(=O)c2ccc(Cl)cc2Cl)CC1` [GSK, GSK1016790A], in experiment [2], the EC50 was determined as 0.05 µM.
